Measured values as given in patent US20100119483A1, “PEPTIDE VIRAL ENTRY INHIBITORS” (Schering Corporation, priority 2004, published 2010).
Values joined by “and” are separate entries in the source; they are usually repeats but may differ in a detail not shown here. Equal entries are not always repeated.

Test system: HCV pseudoparticles
Test: HCV pseudoparticle (HCVpp) entry assay in Huh7 hepatoma cells, luciferase readout
Assay type: cell-based, hepatitis C virus
Conditions: for % of control at ~30 uM: percentage of hepatitis C virus cellular entry at 30 μM peptide vs uninhibited control; for HCVpp % inh: truncated peptides tested at 50 uM in 1% DMSO
Experimental: HCV pseudotype particle generation. Single cycle HCV pseudoparticles are composed of a replication-defective HIV genome and HCV envelope proteins. These pseudoparticles were made by transfecting 293T cells with 5 ug of each pNL43E-R-luc (Chen et al., J. Virol. 68(2):654-60 (1994)) and plasmid expressing HCV envelope proteins pCMV/E1-2 with profection transfection kit from Promega (Madison, Wis.). The medium was refreshed 12-24 hours after transfection and supernatant was collected 48 hours after transfection. The supernatant from a transfection of only pNL43E-R-luc was used each time as a control for non specific entry events.
Infection of hepatoma cell lines with HCV pseudotype particles and screen for inhibitory peptides. The hepatoma cells, Huh7, was seeded at 8000 cells in 90 ul medium in 96-well plate. In the case of the inhibitor screen, the inhibitor was incubated with cells for one hour at 37° C. and then 50 ul viral supernatant was added to the cells 24 hours after seeding. The viral stock was pre-tittered and diluted to yield approximately 10,000 to 20,000 RLU. The cells were incubated at 37° C. with 5% CO2 for additional 72 hours and were harvested for luciferase assay. Peptide stocks were prepared in 100% DMSO at 10 mg/ml and were first screened at 100 ug/ml and then a dose responsive curve was generated with 10 points 3-fold titration starting from 100 ug/ml.
The peptide of SEQ ID NO: 77 was first serial diluted by the factor of 3 in 100% DMSO from 100 ug/ml and then transferred to the assay plates at 100-fold dilution. The peptide was first incubated with cells and HCVpp (A) or HIVpp (B), respectively, for 30 minutes at […] in this experiment. Then, the medium containing the peptide was removed from the cells and virus with peptide was added to the cells. Cells were incubated for 72 hours and then were harvested for luciferase assay. Two separate trials were performed.
In addition, the peptide of SEQ ID NO: 77 was mutated at several positions and assayed in the HCV entry assay discussed above. […] The assays were performed essentially as described above.

[1] = 0.1 nM of peptide (printed for three rows), two values per peptide and row
[2] = 0.3 nM of peptide, two values per peptide
[3] = 1 nM of peptide, two values per peptide
[4] = 3 nM of peptide, two values per peptide
[5] = 10 nM of peptide, two values per peptide
[6] = 30 nM of peptide, two values per peptide
[7] = 100 nM of peptide, two values per peptide
[8] = 300 nM of peptide, two values per peptide
[9] = 30000 nM of peptide, two values per peptide
[10] = 10000 nM of peptide, two values per peptide

## A-I-K-W-E-Y-P-L-L-L-F-L-L (AIKWEYPLLLFLL; HCV peptide) [SEQ ID NO: 121]
[1]
  % control (HCVpp entry), proline scanning: 77 % control and 95 % control and 91 % control and 115 % control and 104 % control and 90 % control
[2]
  % control (HCVpp entry), proline scanning: 68 % control and 84 % control
[3]
  % control (HCVpp entry), proline scanning: 76 % control and 110 % control
[4]
  % control (HCVpp entry), proline scanning: 85 % control and 87 % control
[5]
  % control (HCVpp entry), proline scanning: 75 % control and 66 % control
[6]
  % control (HCVpp entry), proline scanning: 70 % control and 82 % control
[7]
  % control (HCVpp entry), proline scanning: 44 % control and 63 % control
[8]
  % control (HCVpp entry), proline scanning: 42 % control and 30 % control
[9]
  % control (HCVpp entry), proline scanning: 32 % control and 41 % control

## G-I-K-W-E-Y-V-L-L-L-F-L-L [SEQ ID NO: 82]
0.00003 uM of peptide, two values per peptide and row
  % control (HCVpp entry), glycine scanning: 74 % control and 88 % control and 118 % control and 120 % control
0.0001 uM of peptide, two values per peptide
  % control (HCVpp entry), glycine scanning: 62 % control and 61 % control
0.0003 uM of peptide, two values per peptide
  % control (HCVpp entry), glycine scanning: 68 % control and 71 % control
0.001 uM of peptide, two values per peptide
  % control (HCVpp entry), glycine scanning: 90 % control and 66 % control
0.003 uM of peptide, two values per peptide
  % control (HCVpp entry), glycine scanning: 71 % control and 80 % control
0.01 uM of peptide, two values per peptide
  % control (HCVpp entry), glycine scanning: 53 % control and 43 % control
0.03 uM of peptide, two values per peptide
  % control (HCVpp entry), glycine scanning: 46 % control and 41 % control
0.1 uM of peptide, two values per peptide
  % control (HCVpp entry), glycine scanning: 33 % control and 27 % control
0.3 uM of peptide, two values per peptide
  % control (HCVpp entry), glycine scanning: 33 % control and 25 % control
10 uM of peptide, two values per peptide
  % control (HCVpp entry), glycine scanning: 33 % control and 29 % control
30 uM of peptide, two values per peptide
  % control (HCVpp entry), glycine scanning: 18 % control and 29 % control
  % of control at ~30 uM: 22%

## K-W-E-Y-V-L-L-L-F-L-L (KWEYVLLLFLL; HCV peptide) [SEQ ID NO: 108, N-terminal truncation]
  HCVpp % inh: 78%

## A-I-K-W-E-Y-K-L-L-L-F-L-L (AIKWEYKLLLFLL; HCV peptide) [SEQ ID NO: 131]
[1]
  % control (HCVpp entry), lysine scanning: 97 % control and 80 % control and 94 % control and 96 % control and 113 % control
[2]
  % control (HCVpp entry), lysine scanning: 105 % control and 81 % control
[3]
  % control (HCVpp entry), lysine scanning: 85 % control and 68 % control
[4]
  % control (HCVpp entry), lysine scanning: 71 % control and 85 % control
[5]
  % control (HCVpp entry), lysine scanning: 74 % control and 66 % control
[6]
  % control (HCVpp entry), lysine scanning: 71 % control and 68 % control
[7]
  % control (HCVpp entry), lysine scanning: 49 % control and 62 % control
[8]
  % control (HCVpp entry), lysine scanning: 29 % control and 42 % control
[10]
  % control (HCVpp entry), lysine scanning: 16 % control and 14 % control
[9]
  % control (HCVpp entry), lysine scanning: 30 % control and 44 % control

## A-I-K-W-E-Y-A-L-L-L-F-L-L (AIKWEYALLLFLL; HCV peptide) [SEQ ID NO: 92, Ala-scan]
[1]
  % control (HCVpp entry), alanine scanning: 73 % control and 115 % control and 82 % control and 89 % control and 99 % control and 130 % control
[2]
  % control (HCVpp entry), alanine scanning: 85 % control and 61 % control
[3]
  % control (HCVpp entry), alanine scanning: 90 % control and 80 % control
[4]
  % control (HCVpp entry), alanine scanning: 68 % control and 99 % control
[5]
  % control (HCVpp entry), alanine scanning: 82 % control and 59 % control
[6]
  % control (HCVpp entry), alanine scanning: 42 % control and 64 % control
[7]
  % control (HCVpp entry), alanine scanning: 32 % control and 25 % control
[8]
  % control (HCVpp entry), alanine scanning: 21 % control and 30 % control
  % of control at ~30 uM: 17%

## A-I-K-W-E-Y-V-L-L-L-F-P-L (AIKWEYVLLLFPL; HCV peptide) [SEQ ID NO: 126]
[1]
  % control (HCVpp entry), proline scanning: 83 % control and 66 % control and 89 % control and 87 % control and 104 % control and 119 % control
[2]
  % control (HCVpp entry), proline scanning: 88 % control and 91 % control
[3]
  % control (HCVpp entry), proline scanning: 88 % control and 93 % control
[4]
  % control (HCVpp entry), proline scanning: 98 % control and 89 % control
[5]
  % control (HCVpp entry), proline scanning: 86 % control and 76 % control
[6]
  % control (HCVpp entry), proline scanning: 83 % control and 82 % control
[7]
  % control (HCVpp entry), proline scanning: 68 % control and 81 % control
[8]
  % control (HCVpp entry), proline scanning: 72 % control and 85 % control
[10]
  % control (HCVpp entry), proline scanning: 43 % control and 44 % control
[9]
  % control (HCVpp entry), proline scanning: 55 % control and 80 % control

## A-I-K-W-E-Y-V-L-L-L-K-L-L (AIKWEYVLLLKLL; HCV peptide) [SEQ ID NO: 135]
[2]
  % control (HCVpp entry), lysine scanning: 72 % control and 99 % control
[3]
  % control (HCVpp entry), lysine scanning: 76 % control and 84 % control
[4]
  % control (HCVpp entry), lysine scanning: 67 % control and 74 % control
[5]
  % control (HCVpp entry), lysine scanning: 79 % control and 104 % control
[6]
  % control (HCVpp entry), lysine scanning: 90 % control and 89 % control
[7]
  % control (HCVpp entry), lysine scanning: 75 % control and 107 % control
[8]
  % control (HCVpp entry), lysine scanning: 87 % control and 70 % control
[10]
  % control (HCVpp entry), lysine scanning: 57 % control and 43 % control
[9]
  % control (HCVpp entry), lysine scanning: 37 % control and 29 % control

## A-I-K-A-E-Y-V-L-L-L-F-L-L (AIKAEYVLLLFLL; HCV peptide) [SEQ ID NO: 89, Ala-scan]
[1]
  % control (HCVpp entry), alanine scanning: 76 % control and 84 % control and 95 % control and 104 % control and 105 % control and 96 % control
[2]
  % control (HCVpp entry), alanine scanning: 64 % control and 71 % control
[3]
  % control (HCVpp entry), alanine scanning: 96 % control and 85 % control
[4]
  % control (HCVpp entry), alanine scanning: 76 % control and 63 % control
[5]
  % control (HCVpp entry), alanine scanning: 57 % control and 63 % control
[6]
  % control (HCVpp entry), alanine scanning: 71 % control and 66 % control
[7]
  % control (HCVpp entry), alanine scanning: 38 % control and 41 % control
[8]
  % control (HCVpp entry), alanine scanning: 27 % control and 24 % control
[10]
  % control (HCVpp entry), alanine scanning: 17 % control and 24 % control
  % of control at ~30 uM: 8%

## S-F-A-I-K-W-E-Y-V-L-L-L-F-L-L [SEQ ID NO: 104]
  HCVpp % inh: 91%

## A-I-K-W-E-Y-V-L-L-L-P-L-L (AIKWEYVLLLPLL; HCV peptide) [SEQ ID NO: 125]
[1]
  % control (HCVpp entry), proline scanning: 99 % control and 91 % control and 92 % control and 111 % control and 101 % control and 95 % control
[2]
  % control (HCVpp entry), proline scanning: 104 % control
[3]
  % control (HCVpp entry), proline scanning: 99 % control and 75 % control
[4]
  % control (HCVpp entry), proline scanning: 82 % control and 85 % control
[5]
  % control (HCVpp entry), proline scanning: 109 % control and 97 % control
[6]
  % control (HCVpp entry), proline scanning: 102 % control and 80 % control
[7]
  % control (HCVpp entry), proline scanning: 58 % control and 60 % control
[8]
  % control (HCVpp entry), proline scanning: 76 % control and 63 % control
[10]
  % control (HCVpp entry), proline scanning: 54 % control and 73 % control
[9]
  % control (HCVpp entry), proline scanning: 59 % control and 68 % control

## A-I-K-W-E-Y-V-L-L-L-A-L-L (AIKWEYVLLLALL; HCV peptide) [SEQ ID NO: 95, Ala-scan]
[1]
  % control (HCVpp entry), alanine scanning: 82 % control and 89 % control and 76 % control and 114 % control and 97 % control and 113 % control
[2]
  % control (HCVpp entry), alanine scanning: 70 % control and 62 % control
[3]
  % control (HCVpp entry), alanine scanning: 72 % control and 91 % control
[4]
  % control (HCVpp entry), alanine scanning: 52 % control and 85 % control
[5]
  % control (HCVpp entry), alanine scanning: 47 % control and 64 % control
[7]
  % control (HCVpp entry), alanine scanning: 53 % control and 35 % control
[8]
  % control (HCVpp entry), alanine scanning: 13 % control and 18 % control
[10]
  % control (HCVpp entry), alanine scanning: 15 % control and 25 % control
  % of control at ~30 uM: 8%

## A-I-K-P-E-Y-V-L-L-L-F-L-L (AIKPEYVLLLFLL; HCV peptide) [SEQ ID NO: 118]
[1]
  % control (HCVpp entry), proline scanning: 87 % control and 80 % control and 108 % control and 103 % control and 79 % control and 110 % control
[2]
  % control (HCVpp entry), proline scanning: 92 % control and 101 % control
[3]
  % control (HCVpp entry), proline scanning: 99 % control and 74 % control
[4]
  % control (HCVpp entry), proline scanning: 84 % control and 108 % control
[5]
  % control (HCVpp entry), proline scanning: 83 % control and 116 % control
[6]
  % control (HCVpp entry), proline scanning: 93 % control and 63 % control
[7]
  % control (HCVpp entry), proline scanning: 53 % control and 47 % control
[8]
  % control (HCVpp entry), proline scanning: 29 % control and 38 % control
[9]
  % control (HCVpp entry), proline scanning: 33 % control and 24 % control

## I-K-W-E-Y-V-L-L-L-F-L-L [SEQ ID NO: 107]
  HCVpp % inh: 88%
